Experimental data: EP1790345A1, “Triazin beta-secretase inhibitors” (Esbatech AG, priority 2005, dated 2007)

Columns and labels:
[1] = target: recombinant BACE enzyme (Homo sapiens, UniProt P56817); test: BACE FRET assay (in vitro); type: biochemical; settings: concentration that reduces the activity of BACE to 50 %
Source text: (§1) The tests performed were • a) Aβ1-40 (Sw) bioassay, which measures the amount of the amyoid peptide Aβ1-40 in the supernatant of Swedish APP695 transgenic HEK293 cells in the presence of the various BACE inhibitors via ELISA (enzyme-linked immunosorbent assay). In the table, the inhibitory concentration that reduces Aβ1-40 secretion to 50 % is indicated (IC50), or the % reduction of Aβ1-40 secretion at the indicated concentration. • b) FRET assay, which measures the activity of recombinant BACE enzyme in the presence of the various BACE inhibitors via a FRET (fluorescence resonance energy transfer)-based readout. In the table, the inhibitory concentration that reduces the activity of BACE to 50 % is indicated (IC50), or the % reduction of the activity of BACE at the indicated concentration. • c) An additional in silico test was performed for the compounds listed in Tables 1 to 3. The compounds were docked with the FFLD approach (Budin et al., Biol. Chem. 382, 1365-1372, 2001) and their binding energy was evaluated with the LIECE method (Huang and Caflisch, J. Med. Chem. 47, 5791-5797, 2004). The affinity evaluated with LIECE is in the low micromolar range for most of these compounds.

[2] = system: Swedish APP695 transgenic HEK293 cells; test: Aβ1-40 (Sw) bioassay (ELISA of Aβ1-40 in cell supernatant); type: cell-based; settings: for % reduction of Aβ1-40 secretion: Swedish APP695 transgenic HEK293 cells, ELISA; for IC50: Homo sapiens, HEK293, concentration that reduces Aβ1-40 secretion to 50 %, read-out: IC50 Aβ1-40(sw) bioassay (cell-based)
Source text: as §1

Chain of recombinant BACE enzyme (P56817 46-501, species assumed): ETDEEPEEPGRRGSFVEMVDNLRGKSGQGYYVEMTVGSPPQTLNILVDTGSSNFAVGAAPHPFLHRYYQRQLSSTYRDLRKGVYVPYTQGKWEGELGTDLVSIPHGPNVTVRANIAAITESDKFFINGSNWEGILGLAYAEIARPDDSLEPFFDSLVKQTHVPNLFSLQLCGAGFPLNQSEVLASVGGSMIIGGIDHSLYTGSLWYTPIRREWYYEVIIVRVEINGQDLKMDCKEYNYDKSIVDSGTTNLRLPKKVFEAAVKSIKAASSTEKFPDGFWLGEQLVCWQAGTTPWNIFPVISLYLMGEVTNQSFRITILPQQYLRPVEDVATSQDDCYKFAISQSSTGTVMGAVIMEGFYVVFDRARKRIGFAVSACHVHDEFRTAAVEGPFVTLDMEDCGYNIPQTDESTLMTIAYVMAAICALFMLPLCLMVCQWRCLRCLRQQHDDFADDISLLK

| Structure (SMILES) | IC50 [1] | also measured |
| --- | --- | --- |
| Clc1ccccc1-c1ccc(/C=N/Nc2nc(Nc3ccccc3)nc(Nc3ccccc3)n2)o1 [Compound 251F09] | 188 µM |  |
| Oc1c(Br)cc(Br)cc1/C=N/Nc1nc(Nc2ccccc2)nc(Nc2ccccc2)n1 [Compound 251A07] | 10.6 µM |  |
| Oc1c(Cl)cc(Cl)cc1/C=N/Nc1nc(Nc2ccccc2)nc(Nc2ccccc2)n1 [Compound 201C08] | 11.2 µM | % reduction of Aβ1-40 secretion ([2]; at 5 µM): 25% (5 µM) |
| O=C(O)c1cc(-c2ccc(/C=N/Nc3nc(Nc4ccccc4)nc(N4CCCCC4)n3)o2)ccc1Cl [Compound 250A05] | 142 µM | IC50 [2]: 10 to 20 µM |
| COc1ccc(Nc2nc(N/N=C/c3cc(Br)cc(Br)c3O)nc(N3CCOCC3)n2)cc1 [Compound 251A09] | 34.4 µM |  |
| Cc1ccc(C)c(Nc2nc(N/N=C/c3cc(Br)c(O)c(Br)c3O)nc(N3CCOCC3)n2)c1 [Compound 205A04] | 81.8 µM | % reduction of Aβ1-40 secretion ([2]; at 5 µM): No (5 µM) |
| Cc1ccc(Cl)cc1-c1ccc(/C=N/Nc2nc(N3CCOCC3)nc(N3CCOCC3)n2)o1 [Compound 251C10] | > 100 µM |  |
| Oc1c(Br)cc(/C=N/Nc2nc(N3CCCCC3)nc(N3CCCCC3)n2)c(O)c1Br [Compound 251G09] | 170 µM |  |
| COc1ccc(Nc2nc(NN=Cc3ccc(-c4cccc(C(=O)O)c4)o3)nc(Nc3ccccc3)n2)cc1 [Compound 250B04] | 66.6 µM | IC50 [2]: 10 to 20 µM |
| Cc1ccc(Nc2nc(N/N=C/c3cc(Br)cc(Br)c3O)nc(N3CCOCC3)n2)cc1 [Compound 205C07] | 48.1 µM | % reduction of Aβ1-40 secretion ([2]; at 50 µM): No (50 µM) |
| Oc1c(Cl)cc(Br)cc1/C=N/Nc1nc(Nc2ccccc2)nc(Nc2ccccc2)n1 [Compound 201G11] | 11.9 µM | % reduction of Aβ1-40 secretion ([2]; at 5 µM): 26% (5 µM) |
| O=C(O)c1cc(-c2ccc(C=NNc3nc(Nc4ccc(F)cc4)nc(N4CCOCC4)n3)o2)ccc1Cl [Compound 250C04] | 7.1 µM | % reduction of Aβ1-40 secretion ([2]; at 25 µM): 0 (25 µM) |
| CNc1nc(N/N=C/c2ccc(-c3ccc([N+](=O)[O-])cc3)o2)nc(Nc2ccccc2)n1 [Compound 251C08] | 24.4 µM |  |
| Oc1c(I)cc(I)cc1/C=N/Nc1nc(Nc2ccccc2)nc(Nc2ccccc2)n1 [Compound 201G06] | 25.5 µM | % reduction of Aβ1-40 secretion ([2]; at 5 µM): No (5 µM) |
| Cc1ccc(Nc2nc(N/N=C/c3cc(Br)cc(Br)c3O)nc(N3CCOCC3)n2)cc1Cl [Compound 206E02] | 20.6 µM | % reduction of Aβ1-40 secretion ([2]; at 50 µM): 27% (50 µM) |
| Oc1c(Br)cc(Br)cc1/C=N/Nc1nc(Nc2ccccc2)nc(N2CCCC2)n1 [Compound 251B07] | 45.4 µM |  |
| O=C(O)c1cc(-c2ccc(C=NNc3nc(Nc4ccc(F)cc4)nc(N4CCCCC4)n3)o2)ccc1O [Compound 250B05] | 30.9 µM | IC50 [2]: 10 to 20 µM |
| O=[N+]([O-])c1cc(-c2ccc(/C=N/Nc3nc(N4CCOCC4)nc(N4CCOCC4)n3)o2)ccc1Cl [Compound 251A10] | 124 µM |  |
| Oc1c(Br)cc(/C=N/Nc2nc(Nc3ccccc3)nc(Nc3ccccc3)n2)cc1Br [Compound 202E09] | 53.9 µM | % reduction of Aβ1-40 secretion ([2]; at 5 µM): 25% (5 µM) |
